Counter-ions that a name gives are not always drawn.
System: Von Bezold-Jarisch Reflex induced by 5-HT
Assay: Von Bezold-Jarisch Reflex induced by 5-HT injected intravenously
Type: in vivo
Conditions: rat
Source text: The activity of these compounds agianst 5-HT can be assessed in vivo by measurement of the effect of the compound on the Von Bezold-Jarisch Reflex induced by 5-HT injected intravenously into the rat (see Paintal A.S., Physiol. Rev. 53, 159-227, 1973; J.R. Fozard, Naunyn-Schmiedeberg's Arch. Pharmacol., 326, 1984, 36-44). The transient cardiac slowing arises from an increased afferent vagus activity arising from stimulation by 5-HT of sensory afferent fibres in and around the heart.

[1] = doses of 0.01-0.1 mg/kg given intravenously
[2] = doses of 0.25-1 mg/kg given orally

Row | SMILES | suppression of the Von Bezold-Jarisch Reflex response [1] | suppression of the Von Bezold-Jarisch Reflex response [2]
1 | Cc1cc(C)cc(C(=O)OC2CC3CC4CC(C2)N3CC4=O)c1 (stereo not drawn) [endo-8-(3,5-dimethylbenzoyloxy)hexahydro-2,6-methano-2H-quinolizin-3(4H)-one] | suppressed the response dose-dependently | suppressed the response dose-dependently
2 | O=C(OC1CC2CC3CC(C1)N2CC3=O)c1c[nH]c2ccccc12 (stereo not drawn) [endo-hexahydro-8-(3-indolylcarbonyloxy)-2,6-methano-2H-quinolizin-3(4H)one hydrochloride] | suppressed the response dose-dependently | suppressed the response dose-dependently

Source: patent EP0329902A1, “Use of quinolizinone and quinolizine derivatives in the manufacture of medicaments for the treatment of psychosis” (MERRELL DOW PHARMACEUTICALS INC., priority 1988, dated 1989)
